Experimental data published in US11478461B2, “[1.1.1] bicyclo compounds as indoleamine 2,3-dioxygenase inhibitors” (Merck Sharp & Dohme Corp., priority 2018, dated 2022).

What follows are molecules tested against IDO1 (Homo sapiens, UniProt P14902) (assay: IDO1 Cellular Assay in Hela Cells Stimulated with IFNγ). Settings: IFNγ 100 ng/mL, 300 uM L-tryptophan, about 48 hours, fluorescence readout, read-out: IDO1 HELA Cell Assay, IC50.
Format: cell-based
Outline: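 HeLa cells stimulated with 100 ng/mL IFNγ, supplemented with 300 uM L-tryptophan, incubated 48 h at 37° C with ten 3-fold compound dilutions. Unstimulated cells served as Max-E control. Kynurenine detected by fluorescence (ex 400/em 510 nm) after overnight methyl isonipecotate reaction; IC50 by four-parameter logistic fit.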

Chain of IDO1 (P14902 whole entry): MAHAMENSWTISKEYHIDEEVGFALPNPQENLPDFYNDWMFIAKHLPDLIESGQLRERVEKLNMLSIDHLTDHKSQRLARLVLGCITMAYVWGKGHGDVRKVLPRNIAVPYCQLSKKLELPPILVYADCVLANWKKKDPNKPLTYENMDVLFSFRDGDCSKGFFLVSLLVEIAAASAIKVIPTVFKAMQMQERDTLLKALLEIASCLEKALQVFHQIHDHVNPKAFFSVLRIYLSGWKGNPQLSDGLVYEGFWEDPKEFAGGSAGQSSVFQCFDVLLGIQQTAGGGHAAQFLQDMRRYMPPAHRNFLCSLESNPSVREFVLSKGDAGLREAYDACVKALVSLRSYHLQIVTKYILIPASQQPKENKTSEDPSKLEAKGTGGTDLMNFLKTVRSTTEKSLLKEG

IC50	Compound
16.6 nM	Cc1ccc(C(=O)NC23CC([C@H](C)C(=O)Nc4ccc(F)cc4)(C2)C3)cc1F [Example 58, 3-fluoro-N-[3-[(1S)-2-(4-fluoroanilino)-1-methyl-2-oxo-ethyl]-1-bicyclo[1.1.1]pentanyl]-4-methyl-benzamide]
115 nM	C[C@H](C(=O)Nc1ccc(F)cc1)C12CC(NC(=O)OC(C)(C)C)(C1)C2 (single isomer, unassigned) [Example 32]
23.6 nM	C[C@H](C(=O)Nc1ccc(F)cc1)C12CC(NC(=O)c3ccc(F)c(F)c3)(C1)C2 [Example 69, (S)-3,4-Difluoro-N-(3-(1-((4-fluorophenyl)amino)-1-oxopropan-2-yl)bicyclo[1.1.1]pentan-1-yl)benzamide]
20.4 nM	CC(C)OC(=O)NC12CC([C@H](C)C(=O)Nc3ccc(F)cc3)(C1)C2 [Example 79, isopropyl (S)-(3-(1-((4-fluorophenyl)amino)-1-oxopropan-2-yl)bicyclo[1.1.1]pentan-1-yl)carbamate]
47.8 nM	N#Cc1cccc(C(=O)NC23CC(C4(C(=O)Nc5ccc(F)cc5)CCC4)(C2)C3)c1 [Example 4, 3-cyano-N-(3-(1-((4-fluorophenyl)carbamoyl)cyclobutyl)bicyclo[1.1.1]pentan-1-yl)benzamide]
448 nM	CC(C(=O)Nc1ccc(F)cc1)C12CC(NC(=O)c3cccn4nncc34)(C1)C2 (stereo not shown) [Example 143, N-[3-[2-(4-fluoroanilino)-1-methyl-2-oxo-ethyl]-1-bicyclo[1.1.1]pentanyl]triazolo[1,5-a]pyridin-1-ium-4-carboxamide]
39 nM	C[C@H](C(=O)Nc1ccc(F)cc1)C12CC(NC(=O)Nc3ccc(F)c(Cl)c3)(C1)C2 [Example 83, (S)-2-(3-(3-(3-chloro-4-fluorophenyl)ureido)bicyclo [1.1.1]pentan-1-yl)-N-(4-fluorophenyl)propanamide]
35.8 nM	O=C(NC12CC(C3(C(=O)Nc4ccc(F)c(F)c4)COC3)(C1)C2)c1cccc(Cl)c1 [Example 105, 3-(3-(3-Chlorobenzamido)bicyclo[1.1.1]pentan-1-yl)-N-(3,4-difluorophenyl)oxetane-3-carboxamide]
259 nM	CC(C(=O)Nc1ccc(F)cc1)C12CC(NC(=O)c3ccc(C(F)(F)F)cn3)(C1)C2 (stereo not shown) [Example 133, N-[3-[2-(4-fluoroanilino)-1-methyl-2-oxo-ethyl]-1-bicyclo[1.1.1]pentanyl]-5-(trifluoromethyl)pyridin-1-ium-2-carboxamide]
276 nM	CC(C(=O)Nc1ccc(F)cc1)C12CC(NC(=O)c3cnnc4ccccc34)(C1)C2 (stereo not shown) [Example 135, N-[3-[2-(4-fluoroanilino)-1-methyl-2-oxo-ethyl]-1-bicyclo[1.1.1]pentanyl]cinnoline-4-carboxamide]
180 nM	CC(C(=O)Nc1ccc(F)cc1)C12CC(NC(=O)c3cccc4ccnn34)(C1)C2 (stereo not shown) [Example 126, N-[3-[2-(4-fluoroanilino)-1-methyl-2-oxo-ethyl]-1-bicyclo[1.1.1]pentanyl]pyrazolo[1,5-a]pyridin-1-ium-7-carboxamide]
247 nM	CC(C(=O)Nc1ccc(F)cc1)C12CC(NC(=O)c3cccc4ccncc34)(C1)C2 (stereo not shown) [Example 130, N-[3-[2-(4-fluoroanilino)-1-methyl-2-oxo-ethyl]-1-bicyclo[1.1.1]pentanyl]isoquinolin-2-ium-8-carboxamide]
123 nM	Cc1c(Cl)cccc1C(=O)NC12CC([C@H](C)C(=O)Nc3ccc(F)cc3)(C1)C2 [Example 53, 3-chloro-N-[3-[(1S)-2-(4-fluoroanilino)-1-methyl-2-oxo-ethyl]-1-bicyclo[1.1.1]pentanyl]-2-methyl-benzamide]
11.2 nM	CC(C(=O)Nc1ccc(F)cc1)C12CC(NC(=O)c3cccc(OC(F)(F)F)c3)(C1)C2 (stereo not shown) [Example 109, N-[3-[2-(4-fluoroanilino)-1-methyl-2-oxo-ethyl]-1-bicyclo[1.1.1]pentanyl]-3-(trifluoromethoxy)benzamide]
415 nM	CCc1cc(C(=O)NC23CC(C(C)C(=O)Nc4ccc(F)cc4)(C2)C3)n(C)n1 (stereo not shown) [Example 141, 5-ethyl-N-[3-[2-(4-fluoroanilino)-1-methyl-2-oxo-ethyl]-1-bicyclo[1.1.1]pentanyl]-2-methyl-pyrazole-3-carboxamide]
157 nM	C[C@H](C(=O)Nc1ccc(F)cc1)C12CC(NC(=O)c3ccc(Cl)nc3)(C1)C2 [Example 60, 6-chloro-N-[3-[(1S)-2-(4-fluoroanilino)-1-methyl-2-oxo-ethyl]-1-bicyclo[1.1.1]pentanyl]pyridin-1-ium-3-carboxamide]
47.3 nM	CC(C(=O)Nc1ccc(F)cc1)C12CC(NC(=O)c3cnn4ccccc34)(C1)C2 (stereo not shown) [Example 113, N-[3-[2-(4-fluoroanilino)-1-methyl-2-oxo-ethyl]-1-bicyclo[1.1.1]pentanyl]pyrazolo[1,5-a]pyridin-1-ium-3-carboxamide]

IC50	Compound
6.43 nM	C[C@@H](C(=O)Nc1ccc(C(F)(F)F)cc1)C12CC(NC(=O)c3ccc(Cl)c(Cl)c3)(C1)C2 [Example 92, (R)-3,4-dichloro-N-(3-(1-oxo-1-((4-(trifluoromethyl)phenyl)amino)propan-2-yl)bicyclo[1.1.1]pentan-1-yl)benzamide]
133 nM	CC(C(=O)Nc1ccc(Cl)cc1)C12CC(NC(=O)c3cccc(C#N)c3)(C1)C2 (single isomer, unassigned) [Example 13, N-(3-(1-((4-chlorophenyl)amino)-1-oxopropan-2-yl)bicyclo[1.1.1]pentan-1-yl)-3-cyanobenzamide]
201 nM	Cc1cc(C(=O)NC23CC([C@@H](C)C(=O)Nc4ccc(F)cc4)(C2)C3)ccc1F [Example 39, 4-fluoro-N-[3-[(1R)-2-(4-fluoroanilino)-1-methyl-2-oxo-ethyl]-1-bicyclo[1.1.l]pentanyl]-3-methyl-benzamide]
36.4 nM	CC(C(=O)Nc1ccc(Cl)c(F)c1)C12CC(NC(=O)c3cccc(Cl)c3)(C1)C2 (single isomer, unassigned) [Example 10, 3-chloro-N-(3-(1-((4-chloro-3-fluorophenyl)amino)-1-oxopropan-2-yl)bicyclo[1.1.1]pentan-1-yl)benzamide]
83.2 nM	O=C(NC1(C23CC(NC(=O)c4ccc(Cl)cn4)(C2)C3)CC1)c1ccc(F)cc1 [Example 25, 5-chloro-N-(3-(1-(4-fluorobenzamido)cyclopropyl)bicyclo[1.1.1]pentan-1-yl)picolinamide]
19.7 nM	C[C@H](C(=O)Nc1ccc(F)cc1)C12CC(NC(=O)c3ccc4ccccc4c3)(C1)C2 [Example 148, (S)-N-(3-(1-((4-fluorophenyl)amino)-1-oxopropan-2-yl)bicyclo[1.1.1]pentan-1-yl)-2-naphthamide]
21.8 nM	C[C@H](C(=O)Nc1ccc(F)cc1)C12CC(NC(=O)OCc3ccccc3)(C1)C2 [Example 78, benzyl (S)-(3-(1-((4-fluorophenyl)amino)-1-oxopropan-2-yl)bicyclo[1.1.1]pentan-1-yl)carbamate]
131 nM	CC(C(=O)Nc1ccc(F)cc1)C12CC(NC(=O)c3cccc4c3CC(=O)N4)(C1)C2 (stereo not shown) [Example 121, N-[3-[2-(4-fluoroanilino)-1-methyl-2-oxo-ethyl]-1-bicyclo[1.1.1]pentanyl]-2-oxo-indoline-4-carboxamide]
267 nM	CC(C(=O)Nc1ccc(F)cc1)C12CC(NC(=O)c3cccc4cnccc34)(C1)C2 (stereo not shown) [Example 134, N-[3-[2-(4-fluoroanilino)-1-methyl-2-oxo-ethyl]-1-bicyclo[1.1.1]pentanyl]isoquinolin-2-ium-5-carboxamide]
153 nM	C[C@@H](C(=O)Nc1ccc(F)cc1)C12CC(NC(=O)c3ccc(F)c(F)c3)(C1)C2 [Example 43, 3,4-difluoro-N-[3-[(1R)-2-(4-fluoroanilino)-1-methyl-2-oxo-ethyl]-1-bicyclo[1.1.1]pentanyl]benzamide]
122 nM	C[C@@H](C(=O)Nc1ccc(F)cc1)C12CC(NC(=O)c3ccc(F)c(Cl)c3)(C1)C2 [Example 35, 3-chloro-4-fluoro-N-[3-[(1R)-2-(4-fluoroanilino)-1-methyl-2-oxo-ethyl]-1-bicyclo[1.1.1]pentanyl]benzamide]
73.2 nM	C[C@H](C(=O)Nc1ccc(F)cc1)C12CC(NC(=O)Nc3ccc(F)cc3)(C1)C2 [Example 85, (S)-N-(4-fluorophenyl)-2-(3-(3-(4-fluorophenyl)ureido)bicyclo [1.1.1]pentan-1-yl)propanamide]
11.4 nM	Cc1ccc(C(=O)NC23CC([C@H](C)C(=O)Nc4ccc(F)cc4)(C2)C3)nc1C [Example 64, N-[3-[(1S)-2-(4-fluoroanilino)-1-methyl-2-oxo-ethyl]-1-bicyclo[1.1.1]pentanyl]-5,6-dimethyl-pyridin-1-ium-2-carboxamide]
107 nM	O=C(NC12CC(C3(NC(=O)c4ccc(F)cc4)CC3)(C1)C2)OCc1ccccc1 [Example 23, Benzyl (3-(1-(4-fluorobenzamido)cyclopropyl)bicyclo[1.1.1]pentan-1-yl)carbamate]
399 nM	CC(C(=O)Nc1ccc(F)cc1)C12CC(NC(=O)c3cnc(Cl)cn3)(C1)C2 (stereo not shown) [Example 140, 5-chloro-N-[3-[2-(4-fluoroanilino)-1-methyl-2-oxo-ethyl]-1-bicyclo[1.1.1]pentanyl]pyrazine-2-carboxamide]
19.2 nM	CC(C)(C(=O)Nc1ccc(F)cc1)C12CC(NC(=O)c3cccc(Cl)c3)(C1)C2 [Example 102, 3-Chloro-N-(3-(1-((4-fluorophenyl)amino)-2-methyl-1-oxopropan-2-yl)bicyclo[1.1.1]pentan-1-yl)benzamide]
30.9 nM	C[C@H](C(=O)Nc1ccc(F)cc1)C12CC(NC(=O)c3cccc(C(F)(F)F)c3)(C1)C2 [Example 62, N-[3-[(1S)-2-(4-fluoroanilino)-1-methyl-2-oxo-ethyl]-1-bicyclo[1.1.1]pentanyl]-3-(trifluoromethyl)benzamide]
